In patent US20250215030A1, “STAT MODULATORS AND USES THEREOF” (Recludix Pharma, Inc., priority 2022, published 2025) one finds IC50 data, which are given here for 15 compounds.

For assay [1], the target named is T1, Recombinant STAT3 protein (STAT3(G127-I722)) (Homo sapiens, UniProt P40763).
T1 construct: STAT3(G127-I722)
The experiment in a line: STAT3 Fluorescence Polarization (FP) Assay. As to conditions: STAT3(G127-I722) 25 nM, probe 5-FAM-GpYLPQTV-NH2 2 nM, 45-minute incubation. The class given is binding. The essentials:
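Serially diluted compounds (1% DMSO) were mixed with 2 nM fluorescent phosphotyrosine peptide and 25 nM STAT3 construct G127-I722, pH 7.4, incubated 45 min at room temperature. IC50 values from fitted polarization curves are reported as categories A (≤100 nM), B, C, D (>10 μM).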

Assay [2] concerns the target T2, Recombinant STAT6 protein (STAT6(W123-T658)) (Homo sapiens, UniProt P42226).
T2 construct: STAT6(W123-T658)
T2 sequence (P42226 123-658): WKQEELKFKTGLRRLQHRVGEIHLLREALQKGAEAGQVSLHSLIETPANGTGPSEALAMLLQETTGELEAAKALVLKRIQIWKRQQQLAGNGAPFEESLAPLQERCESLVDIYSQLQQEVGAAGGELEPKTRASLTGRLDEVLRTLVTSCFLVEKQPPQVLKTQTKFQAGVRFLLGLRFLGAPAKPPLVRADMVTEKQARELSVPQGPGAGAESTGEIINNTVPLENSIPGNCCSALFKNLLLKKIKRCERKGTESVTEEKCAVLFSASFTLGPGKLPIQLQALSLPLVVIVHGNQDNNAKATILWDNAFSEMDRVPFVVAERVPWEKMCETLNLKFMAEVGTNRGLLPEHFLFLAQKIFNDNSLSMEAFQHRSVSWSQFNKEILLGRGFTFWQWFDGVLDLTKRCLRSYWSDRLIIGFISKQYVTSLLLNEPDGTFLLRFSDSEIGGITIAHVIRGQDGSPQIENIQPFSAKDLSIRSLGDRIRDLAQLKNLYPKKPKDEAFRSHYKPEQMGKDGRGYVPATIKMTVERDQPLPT
The experiment in a line: STAT6 Fluorescence Polarization (FP) Assay. Type of assay: binding. As to conditions: STAT6(W123-T658) 250 nM, probe 5-FAM-ApYKPFQDLI-NH2 2 nM, 45-minute incubation. The method, boiled down: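 Competitive displacement of a fluorescent phosphotyrosine peptide (2 nM) from recombinant STAT6 W123-T658 (250 nM), 45 min at room temperature in 10 mM HEPES pH 7.4, 50 mM NaCl, 2 mM DTT. mP fitted against log compound for IC50, grouped A (≤300 nM) to D (>30 μM).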
In general terms: Polarisation of emitted light reports the rotation of a fluorescent probe.

Each structure is given as a SMILES string.

T1 sequence (P40763 127-722, species assumed): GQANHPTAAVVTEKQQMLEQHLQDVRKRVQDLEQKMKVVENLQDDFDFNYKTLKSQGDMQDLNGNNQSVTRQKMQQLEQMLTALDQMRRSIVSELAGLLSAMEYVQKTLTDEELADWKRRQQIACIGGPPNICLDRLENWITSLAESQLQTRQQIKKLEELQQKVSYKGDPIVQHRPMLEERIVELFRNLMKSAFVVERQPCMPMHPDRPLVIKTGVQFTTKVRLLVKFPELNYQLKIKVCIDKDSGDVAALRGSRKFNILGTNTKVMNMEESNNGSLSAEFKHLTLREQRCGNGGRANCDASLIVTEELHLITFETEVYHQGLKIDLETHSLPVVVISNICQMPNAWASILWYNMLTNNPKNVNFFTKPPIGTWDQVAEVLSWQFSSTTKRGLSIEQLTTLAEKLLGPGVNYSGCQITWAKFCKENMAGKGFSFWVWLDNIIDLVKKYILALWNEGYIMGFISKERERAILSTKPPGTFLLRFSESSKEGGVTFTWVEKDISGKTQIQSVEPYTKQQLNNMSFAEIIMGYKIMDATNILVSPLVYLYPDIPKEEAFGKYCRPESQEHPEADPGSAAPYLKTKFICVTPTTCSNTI

In the case of `CCc1ccncc1C1CN(C(=O)[C@@H]2CC[C@@H]3C[C@H]4C[C@H]4C[C@H](NC(=O)c4cc5cc(CP(=O)(O)O)ccc5s4)C(=O)N32)C1` [Example 252, ((2-(((3S,6S,7aS,8aR,9aR)-3-(3-(4-ethylpyridin-3-yl)azetidine-1-carbonyl)-5-oxodecahydro-1H-cyclopropa[d]pyrrolo[1,2-a]azocin-6-yl)carbamoyl)benzo[b]thiophen-5-yl)methyl)phosphonic acid], the IC50 in assay [1] was below 100 nM; in assay [2], above 30000 nM.

Consider `O=C(N[C@H]1C[C@H]2C[C@H]2C[C@H]2CC[C@@H](C(=O)N[C@H]3CN(c4cccnc4)C[C@@H]3F)N2C1=O)c1cc2cc(CP(=O)(O)O)ccc2s1` [Example 253, ((2-(((3S,6S,7aR,8aS,9aR)-3-(((3S,4S)-4-fluoro-1-(pyridin-3-yl)pyrrolidin-3-yl)carbamoyl)-5-oxodecahydro-1H-cyclopropa[d]pyrrolo[1,2-a]azocin-6-yl)carbamoyl)benzo[b]thiophen-5-yl)methyl)phosphonic acid], for which the IC50 was below 100 nM in assay [1] and 3000 to 30000 nM in assay [2].

Turning to `CC(=O)N1C[C@H](NC(=O)[C@@H]2CC[C@@H]3C[C@@H]4C[C@@H]4C[C@H](NC(=O)c4cc5cc(C(F)P(=O)(O)O)ccc5s4)C(=O)N32)[C@@H](F)C1` (stereo partly drawn) [Example 254, ((2-(((3S,6S,7aR,8aS,9aR)-3-(((3S,4S)-1-acetyl-4-fluoropyrrolidin-3-yl)carbamoyl)-5-oxodecahydro-1H-cyclopropa[d]pyrrolo[1,2-a]azocin-6-yl)carbamoyl)benzo[b]thiophen-5-yl)fluoromethyl)phosphonic acid], the IC50 in assay [1] lay within 100 to 1000 nM; in assay [2], 300 to 3000 nM.

`O=C(N[C@H]1C[C@@H]2C[C@@H]2C[C@H]2CC[C@@H](C(=O)N[C@H]3CN(c4cccnc4)C[C@@H]3F)N2C1=O)c1cc2cc(CP(=O)(O)O)ccc2s1` [Example 256, ((2-(((3S,6S,7aS,8aR,9aR)-3-(((3S,4S)-4-fluoro-1-(pyridin-3-yl)pyrrolidin-3-yl)carbamoyl)-5-oxodecahydro-1H-cyclopropa[d]pyrrolo[1,2-a]azocin-6-yl)carbamoyl)benzo[b]thiophen-5-yl)methyl)phosphonic acid]: the IC50 was in the range of 100 to 1000 nM in assay [1] and 3000 to 30000 nM in assay [2].

Consider `O=C(N[C@H]1C[C@@H]2C[C@@H]2C[C@H]2CC[C@@H](C(=O)N[C@H]3CN(c4ncccn4)C[C@@H]3F)N2C1=O)c1cc2cc(CP(=O)(O)O)ccc2s1` [Example 257, ((2-(((3S,6S,7aS,8aR,9aR)-3-(((3S,4S)-4-fluoro-1-(pyrimidin-2-yl)pyrrolidin-3-yl)carbamoyl)-5-oxodecahydro-1H-cyclopropa[d]pyrrolo[1,2-a]azocin-6-yl)carbamoyl)benzo[b]thiophen-5-yl)methyl)phosphonic acid], for which the values for the IC50 in assay [1] and in assay [2] were above 10000 nM and 3000 to 30000 nM, respectively.

With `CC(=O)N1CC2C1CCN2C(=O)[C@@H]1CC[C@@H]2C[C@H]3C[C@H]3C[C@H](NC(=O)c3cc4cc(C(F)(F)P(=O)(O)O)ccc4s3)C(=O)N21` (stereo partly drawn) [Example 258, ((2-(((3S,6S,7aS,8aR,9aR)-3-(6-acetyl-2,6-diazabicyclo[3.2.0]heptane-2-carbonyl)-5-oxodecahydro-1H-cyclopropa[d]pyrrolo[1,2-a]azocin-6-yl)carbamoyl)benzo[b]thiophen-5-yl)difluoromethyl)phosphonic acid], the concentration for half-maximal inhibition (IC50) in assay [1] was below 100 nM; in assay [2], 300 to 3000 nM.

Take `O=C(N[C@H]1C[C@@H]2C[C@@H]2C[C@H]2CC[C@@H](C(=O)N3CCC4C3CN4c3cccnc3)N2C1=O)c1cc2cc(C(F)(F)P(=O)(O)O)ccc2s1` (stereo partly drawn) [Example 259, (difluoro(2-(((3S,6S,7aS,8aR,9aR)-5-oxo-3-(6-(pyridin-3-yl)-2,6-diazabicyclo[3.2.0]heptane-2-carbonyl)decahydro-1H-cyclopropa[d]pyrrolo[1,2-a]azocin-6-yl)carbamoyl)benzo[b]thiophen-5-yl)methyl)phosphonic acid]: the values for the IC50 in assay [1] and in assay [2] were below 100 nM and 300 to 3000 nM, respectively.

For the compound `CC(=O)N1CC2C1CCN2C(=O)[C@@H]1CC[C@@H]2C[C@H]3C[C@H]3C[C@H](NC(=O)c3cc4cc(CP(=O)(O)O)ccc4s3)C(=O)N21` (stereo partly drawn) [Example 260, ((2-(((3S,6S,7aS,8aR,9aR)-3-(6-acetyl-2,6-diazabicyclo[3.2.0]heptane-2-carbonyl)-5-oxodecahydro-1H-cyclopropa[d]pyrrolo[1,2-a]azocin-6-yl)carbamoyl)benzo[b]thiophen-5-yl)methyl)phosphonic acid], the IC50 in assay [1] was 1000 to 10000 nM; in assay [2], above 30000 nM.

As for `O=C(N[C@H]1C[C@@H]2C[C@@H]2C[C@H]2CC[C@@H](C(=O)N3CCC4C3CN4c3cccnc3)N2C1=O)c1cc2cc(CP(=O)(O)O)ccc2s1` (stereo partly drawn) [Example 261, ((2-(((3S,6S,7aS,8aR,9aR)-5-oxo-3-(6-(pyridin-3-yl)-2,6-diazabicyclo[3.2.0]heptane-2-carbonyl)decahydro-1H-cyclopropa[d]pyrrolo[1,2-a]azocin-6-yl)carbamoyl)benzo[b]thiophen-5-yl)methyl)phosphonic acid], the IC50 in assay [1] lay within 100 to 1000 nM; in assay [2] it was 3000 to 30000 nM.

`O=C(N[C@H]1C[C@@H]2C[C@@H]2C[C@H]2CC[C@@H](C(=O)N3CC(c4cnccc4F)C3)N2C1=O)c1cc2cc(C(F)P(=O)(O)O)ccc2s1` (stereo partly drawn) [Example 262, (fluoro(2-(((3S,6S,7aS,8aR,9aR)-3-(3-(4-fluoropyridin-3-yl)azetidine-1-carbonyl)-5-oxodecahydro-1H-cyclopropa[d]pyrrolo[1,2-a]azocin-6-yl)carbamoyl)benzo[b]thiophen-5-yl)methyl)phosphonic acid]: the half-inhibitory concentration (IC50) in assay [1] is below 100 nM; in assay [2], 300 to 3000 nM.

`COc1ccncc1C1CN(C(=O)[C@@H]2CC[C@@H]3C[C@H]4C[C@H]4C[C@H](NC(=O)c4cc5cc(CP(=O)(O)O)ccc5s4)C(=O)N32)C1` [Example 265, ((2-(((3S,6S,7aS,8aR,9aR)-3-(3-(4-methoxypyridin-3-yl)azetidine-1-carbonyl)-5-oxodecahydro-1H-cyclopropa[d]pyrrolo[1,2-a]azocin-6-yl)carbamoyl)benzo[b]thiophen-5-yl)methyl)phosphonic acid]: the values for the IC50 in assay [1] and in assay [2] were below 100 nM and above 30000 nM, respectively.

Regarding `CCc1ccncc1C1CN(C(=O)[C@@H]2CC[C@@H]3C[C@H]4C[C@H]4C[C@H](NC(=O)c4cc5cc(C(F)P(=O)(O)O)ccc5s4)C(=O)N32)C1` (stereo partly drawn) [Example 266, ((2-(((3S,6S,7aS,8aR,9aR)-3-(3-(4-ethylpyridin-3-yl)azetidine-1-carbonyl)-5-oxodecahydro-1H-cyclopropa[d]pyrrolo[1,2-a]azocin-6-yl)carbamoyl)benzo[b]thiophen-5-yl)fluoromethyl)phosphonic acid], the IC50 in assay [1] is below 100 nM; in assay [2], 3000 to 30000 nM.

For the compound `O=C(N[C@H]1C[C@H]2C[C@H]2C[C@H]2CC[C@@H](C(=O)N[C@H]3CN(c4cccnc4)C[C@@H]3F)N2C1=O)c1cc2cc(C(F)P(=O)(O)O)ccc2s1` (stereo partly drawn) [Example 267, (fluoro(2-(((3S,6S,7aR,8aS,9aR)-3-(((3S,4S)-4-fluoro-1-(pyridin-3-yl)pyrrolidin-3-yl)carbamoyl)-5-oxodecahydro-1H-cyclopropa[d]pyrrolo[1,2-a]azocin-6-yl)carbamoyl)benzo[b]thiophen-5-yl)methyl)phosphonic acid], the half-maximal inhibitory concentration (IC50) in assay [1] was below 100 nM; in assay [2] it was 300 to 3000 nM.

In the case of `CC(=O)N1CCC2C1CN2C(=O)[C@@H]1CC[C@@H]2C[C@H]3C[C@H]3C[C@H](NC(=O)c3cc4cc(C(F)(F)P(=O)(O)O)ccc4s3)C(=O)N21` (stereo partly drawn) [Example 270, ((2-(((3S,6S,7aS,8aR,9aR)-3-(2-acetyl-2,6-diazabicyclo[3.2.0]heptane-6-carbonyl)-5-oxodecahydro-1H-cyclopropa[d]pyrrolo[1,2-a]azocin-6-yl)carbamoyl)benzo[b]thiophen-5-yl)difluoromethyl)phosphonic acid], the figures for the concentration for half-maximal inhibition (IC50) in assay [1] and in assay [2] were below 100 nM and 300 to 3000 nM, respectively.

As to `CC(=O)N1CCC2C1CN2C(=O)[C@@H]1CC[C@@H]2C[C@H]3C[C@H]3C[C@H](NC(=O)c3cc4cc(CP(=O)(O)O)ccc4s3)C(=O)N21` (stereo partly drawn) [Example 271, ((2-(((3S,6S,7aS,8aR,9aR)-3-(2-acetyl-2,6-diazabicyclo[3.2.0]heptane-6-carbonyl)-5-oxodecahydro-1H-cyclopropa[d]pyrrolo[1,2-a]azocin-6-yl)carbamoyl)benzo[b]thiophen-5-yl)methyl)phosphonic acid], the IC50 in assay [1] is 1000 to 10000 nM; in assay [2] it was above 30000 nM.

As a reminder, the IC50 is the concentration that gives 50% inhibition.
